The record followed here is patent US10561666B2, “Amido compounds as RORγt modulators and uses thereof” (New York University, priority 2010, dated 2020).

This experiment concerns the target RORγt (Mus musculus, UniProt P51450, T352K). Nature of the experiment: RORγt S2 cell Gal4-luciferase reporter assay. To be noted: for Emax: read-out: Efficacy (%). (A reporter such as luciferase makes a cellular process visible.)
Where [1] appears, read: IC50(μM), Drosophila S2 cells, Gal4-RORγt luciferase reporter, 20 hr.
The mark [2] stands for this setting: S2 cell RORg IC50 μM, S2 cell reporter assay, listed for comparison.

In general, IC50 refers to the midpoint of a concentration-inhibition curve. Low readings indicate higher potency, high ones lower potency.

Bounds are passed on as bounds.

RORγt, sequence (P51450 with tags, fused parts or gaps T352K): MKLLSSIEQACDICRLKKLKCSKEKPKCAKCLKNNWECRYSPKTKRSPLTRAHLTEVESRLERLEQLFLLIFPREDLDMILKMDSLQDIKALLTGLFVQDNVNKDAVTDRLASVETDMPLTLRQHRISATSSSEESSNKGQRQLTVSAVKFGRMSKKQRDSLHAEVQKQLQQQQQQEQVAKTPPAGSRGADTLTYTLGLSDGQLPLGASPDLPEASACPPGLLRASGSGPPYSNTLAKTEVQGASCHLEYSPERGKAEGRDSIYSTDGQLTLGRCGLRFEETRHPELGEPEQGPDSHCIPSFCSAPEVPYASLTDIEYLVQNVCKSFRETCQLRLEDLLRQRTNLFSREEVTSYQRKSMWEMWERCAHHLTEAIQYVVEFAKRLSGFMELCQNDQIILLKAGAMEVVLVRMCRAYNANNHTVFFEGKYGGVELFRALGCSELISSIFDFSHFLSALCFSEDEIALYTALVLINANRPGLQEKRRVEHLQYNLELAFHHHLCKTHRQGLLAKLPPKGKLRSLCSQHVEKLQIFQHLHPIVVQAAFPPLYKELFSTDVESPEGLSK
Source text: Methods: The Drosophila S2 cell line was originally purchased from Invitrogen and was maintained in Schneider's medium supplemented with 10% heat-inactivated bovine fetal calf serum and antibiotics (Invitrogen). […] The resulting chimeric gene was subcloned into the copper inducible pMT/V5-His A vector (available from Invitrogen).
In order to generate stable cell lines, cells were co-transfected with pMT-G4DBD-RORγt, pMT-G4DBD-RORα, pMT-G4DBD-DHR3, or pMT-G4DBDVP16 and pHygro plasmids (Invitrogen) and screened for resistant colonies in the presence of hygromycin (0.3 mg/mL).
Methods: 600 G4DBD-RORγ/γt-luc reporter (#25) or G4DBD-VP16-luc reporter cells were distributed into each well of 1,536-well white bottom plates in 4 μl S2 cell culture volume containing hygromicin (300 μg/ml) and puromycin (2 μg/ml). […] After one-hour incubation, 1 μl of culture medium solution containing copper sulfate (to final 0.7 mM) and 10 μM RORγ/γt antagonists were added to each well. After 20-hour incubation at ambient temperature, 1.5 μl firefly luciferase detection mix was added and the luciferase activities were measured in 10 min. ViewLux luminometers were used for measuring luciferase signal.
Since their cognate DNA binding sites were not well characterized, the DNA binding domains (DBD) of RORγ/γt, RORα (mouse homolog for POPγ), and DHR3 (Drosophila orthologue for ROR family proteins) were replaced with the heterologous yeast GAL4 DBD. The transcriptionally active domain of general transcriptional activator VP16 was also fused with GAL4 DBD. The GAL4 fusion constructs were placed under the control of a copper inducible promoter, and stable S2 cell lines with genomic integration of these four reporter constructs were generated. The copper inducible promoter ensures tight regulation of GAL4-fusion protein expression and it allows small molecules to get into the cells prior to protein induction, thus increasing their effects on GAL4 reporters. The stable reporter cell lines also encode the firefly luciferase reporter, whose expression is regulated by five copies of the GAL4 binding site enhancer (UAS), along with the pol III-driven Renilla luciferase reporter.
A cell-based reporter assay was used to detect RORγt-mediated activity. This assay, called RORγt□ employed Drosophila Schneider cells that were stably transfected with two vectors: a gene expressing a fusion of the Gal4 DNA binding domain and RORγt transactivation domain under the control of the metallothionine promoter and a Photinus luciferase reporter regulated by the Gal4 binding site enhancer, UAS. […] Cells (600/well) were dispensed into white solid 1536-well plates (Greiner) using a solenoid-based dispenser. Following transfer of 23 nL compound or DMSO vehicle by a pin tool, the plates were incubated 1 hr at ambient temperature, and 1 uL/well copper sulfate (700 uM final concentration) was added. The plates were centrifuged 15 s at 1000 RPM and incubated 20 hr at ambient temperature. After addition of 1.5 uL Photinus luciferase detection reagent, the plates were incubated 10 min at ambient temperature and then read by a ViewLux (Perkin Elmer) to detect luminescence. […] Efficacy is expressed as % of the maximal response of control inhibitor (Digoxin), set at 100%.

Take `COc1cc(O)c(C(CC(=O)N2CCOCC2)c2ccc3c(c2)OCO3)c(OC)c1` (centres unmarked) [Compound 4]: the Emax stood at 20.2%. This molecule had an IC50 under setting [1] of 11 to 50 µM. On to `COc1cc(O)c(C(CC(=O)N2CCN(c3ccc(F)cc3)CC2)c2ccc3c(c2)OCO3)c(OC)c1` (centres unmarked) [Compound 40], for which, under setting [1], the half-inhibitory concentration (IC50) was more than 50 µM. For `COc1cc(O)c(C(CC(=O)N2CCCC(C)C2)c2ccccc2OC)c(OC)c1` (centres unmarked) [Compound 59], the concentration for half-maximal inhibition (IC50) was more than 50 µM under setting [1] and more than 20 µM under setting [2]. For the molecule `COc1cc2ccccc2c(O)c1C(CC(=O)N1CCCC(C)C1)c1ccc2c(c1)OCO2` (centres unmarked) [Compound 128], the Emax turned out to be 80%. In addition, the IC50 under setting [1] lay within 11 to 50 µM.

For `COc1cc(OC)c(C(c2ccccc2)C(C)(C)C(=O)N2C3CCC2CC3)c(OC)c1` (centres unmarked) [Compound 153], the Emax came out at 36.5%. The IC50 under setting [1] was in the range of 1 to 10 µM. For `CCC1CCCN(C(=O)CC(c2ccc3c(c2)OCO3)c2c(O)cc(OC)cc2OC)C1` (centres unmarked) [Compound 7], the Emax stood at 96.2%. Also, under setting [1], the IC50 lay in the range of 1 to 10 µM. Regarding `CC1CCCN(C(=O)CC(c2ccc3c(c2)OCO3)c2c(O)ccc3ccccc23)C1` (centres unmarked) [Compound 118], the Emax worked out at 94.9%. Under setting [1], this molecule showed an IC50 of 1 to 10 µM. The IC50 under setting [2] is 1 to 10 µM.

`COc1cc(O)c(C(CC(=O)N2CC(C)CC(C)C2)c2cccc(OC(F)(F)F)c2)c(OC)c1` (centres unmarked) [Compound 93, 1-(3,5-Dimethylpiperidin-1-yl)-3-(2-hydroxy-4,6-dimethoxyphenyl)-3-(3-(trifluoromethoxy)phenyl)propan-1-one]: the Emax was 93.3%. For the same molecule, the IC50 under setting [1] is 1 to 10 µM. In turn, `COc1cc(O)c(C(CC(=O)N(C)c2cccc(C)c2)c2ccc3c(c2)OCO3)c(OC)c1` (centres unmarked) [Compound 28] came in with an IC50 under setting [1] of more than 50 µM.

For `COc1ccc2ccccc2c1C(c1ccc(F)cc1)C(C)(C)C(=O)N1CC(C)OC(C)C1` (centres unmarked) [Compound 156], the Emax was 99.9%. Besides, the IC50 under setting [1] lay within 11 to 50 µM. As to `COc1cc(OC)c(C(c2ccccc2)C(C)(C)C(=O)NC2CC(C)(C)CC(C)(C)C2)c(OC)c1` (centres unmarked) [Compound 154], the IC50 under setting [1] is more than 50 µM. On to `CC1CC(C)CN(C(=O)CC(c2ccc3c(c2)OCO3)c2cc(F)ccc2O)C1` (centres unmarked) [Compound 145], for which the Emax was determined as 79.7%. Also, the concentration for half-maximal inhibition (IC50) under setting [1] lay within 1 to 10 µM. As for `COc1cc(O)c(C(CC(=O)N2CCCC(C)C2)c2ccc(OC)c(OC)c2)c(OC)c1` (centres unmarked) [Compound 58], the Emax was determined as 98.2%. This molecule also registered a concentration for half-maximal inhibition (IC50) under setting [1] of 11 to 50 µM. For the molecule `COc1cc(O)c(C(CC(=O)N2CCCC2)c2ccc3c(c2)OCO3)c(OC)c1` (centres unmarked) [Compound 37], the Emax amounted to 27.1%. This molecule also registered a concentration for half-maximal inhibition (IC50) under setting [1] of 11 to 50 µM.

As for `COCC1CCCN(C(=O)CC(c2ccc3c(c2)OCO3)c2c(O)cc(OC)cc2OC)C1` (centres unmarked) [Compound 12], the Emax turned out to be 90.4%. The same molecule registered a 50% inhibitory concentration (IC50) under setting [1] of 11 to 50 µM. In the same order, the values of `COc1cc(O)c(C(CC(=O)N2CC(C)CC(C)C2)c2cccc(F)c2)c(OC)c1` (centres unmarked) [Compound 102] are 99.9% and 1 to 10 µM. Take `COc1cc(O)c(C(CC(=O)Nc2ccc(C)cc2)c2ccc3c(c2)OCO3)c(OC)c1` (centres unmarked) [Compound 29]: the IC50 under setting [1] is more than 50 µM.

Take `COc1cc(O)c(C(CC(=O)N2CC(C)CC(C)C2)c2ccc(OCc3ccccc3)cc2)c(OC)c1` (centres unmarked) [Compound 110]: the IC50 (Drosophila S2 cells, Gal4-RORγt luciferase reporter, 20 hr) lay in the range of 1 to 10 µM. Turning to `CC1CCCN(C(=O)CC(c2ccccc2)c2ccccc2O)C1` (centres unmarked) [Compound 54], the IC50 under setting [1] is more than 50 µM. Regarding `COc1cc(O)c([C@H](CC(=O)N2CC(C)CC(C)C2)c2ccc3c(c2)OCO3)c(OC)c1` (some centres unmarked) [Compound 36], the Emax worked out at 91%. For `COc1cc(O)c(C(CC(=O)N2CC(C)CC(C)C2)c2ccc(C(N)=O)cc2)c(OC)c1` (centres unmarked) [Compound 111], the IC50 under setting [1] was 1 to 10 µM. As to `COc1cc(O)c(C(CC(=O)N2CC(C)CC(C)C2)c2ccc(SC)cc2)c(OC)c1` (centres unmarked) [Compound 105, 1-(3,5-Dimethylpiperidin-1-yl)-3-(2-hydroxy-4,6-dimethoxyphenyl)-3-(4-(methylthio)phenyl)propan-1-one], the Emax was 94.7%. In addition, the concentration for half-maximal inhibition (IC50) under setting [1] was less than 1 µM. Take `CC1CCCN(C(=O)CC(c2ccccc2)c2ccc(O)cc2)C1` (centres unmarked) [Compound 53]: the half-inhibitory concentration (IC50) under setting [1] was more than 50 µM.

With `COc1cc(O)c(C(CC(=O)N2CC(C)CC(C)C2)c2ccc(C(=O)NC3CC3)cc2)c(OC)c1` (centres unmarked) [Compound 95], the Emax amounted to 93.1%. Besides, under setting [1], the IC50 was 1 to 10 µM. The matching figures for `COc1cc(OC)c(C(c2ccccc2)C(C)(C)C(=O)N2CC3CC4CC(C3)CC2C4)c(OC)c1` (centres unmarked) [Compound 151]: 118% and more than 50 µM. In the same order, the values of `COc1cc(O)c(C(CC(=O)N2CC(C)CC(C)C2)c2cccc(C#N)c2)c(OC)c1` (centres unmarked) [Compound 87, 3-(3-(3,5-Dimethylpiperidin-1-yl)-1-(2-hydroxy-4,6-dimethoxyphenyl)-3-oxopropyl)benzonitrile] are 96.6% and less than 1 µM. The matching figures for `CCC1(CC)CCN(C(=O)CC(c2ccc3c(c2)OCO3)c2c(O)cc(OC)cc2OC)C1` (centres unmarked) [Compound 10]: 89% and 11 to 50 µM. Consider `COc1cc(O)c(C(CC(=O)N2CCCC(CO)C2)c2ccc3c(c2)OCO3)c(OC)c1` (centres unmarked) [Compound 20], for which the Emax is 44.7%. Besides, the 50% inhibitory concentration (IC50) under setting [1] lay in the range of 11 to 50 µM. `COc1cc(O)c(C(CC(=O)N(Cc2ccccc2)Cc2ccccc2)c2ccc3c(c2)OCO3)c(OC)c1` (centres unmarked) [Compound 33] came in with an IC50 under setting [1] of more than 50 µM.

On to `COc1cc(O)c(C(CC(=O)N2CC(C)CC(C)C2)c2ccc(C(C)(C)C)cc2)c(OC)c1` (centres unmarked) [Compound 89, 3-(4-tert-Butylphenyl)-1-(3,5-dimethylpiperidin-1-yl)-3-(2-hydroxy-4,6-dimethoxyphenyl)propan-1-one], for which the Emax stood at 95.4%. The molecule also showed a 50% inhibitory concentration (IC50) under setting [1] of 1 to 10 µM. In turn, `COc1cc(O)c(C(CC(=O)NCC2CCCCC2)c2ccc3c(c2)OCO3)c(OC)c1` (centres unmarked) [Compound 24] gave an IC50 under setting [1] of more than 50 µM. Regarding `CC(=O)Nc1ccc(C(CC(=O)N2CC(C)CC(C)C2)c2ccc3c(c2)OCO3)c(O)c1` (centres unmarked) [Compound 133], the Emax was found to be 103%. The molecule further returned a half-maximal inhibitory concentration (IC50) under setting [1] of 1 to 10 µM. The matching figures for `COc1cc(O)c(C(CC(=O)N2CC(C)CC(C)C2)c2cc(F)c(F)c(F)c2)c(OC)c1` (centres unmarked) [Compound 109, 1-(3,5-Dimethylpiperidin-1-yl)-3-(2-hydroxy-4,6-dimethoxyphenyl)-3-(3,4,5-trifluorophenyl)propan-1-one]: 97.3% and 1 to 10 µM. Under setting [1], `COc1ccc(C(CC(=O)N2CCCC(C)C2)c2ccccc2)cc1` (centres unmarked) [Compound 51] yielded an IC50 of more than 50 µM.

Regarding `CCOc1ccc(O)c(C(CC(=O)N2CCCC(C)C2)c2ccc3c(c2)OCO3)c1` (centres unmarked) [Compound 119], the Emax stood at 94.3%. Besides, under setting [1], the concentration for half-maximal inhibition (IC50) fell in the range of 11 to 50 µM. The molecule also had an IC50 under setting [2] of 11 to 20 µM. `COc1cc(O)c(C(CC(=O)N2CC(C)CC(C)C2)c2ccc(S(=O)(=O)N(C)C)cc2)c(OC)c1` (centres unmarked) [Compound 84, 4-(3-(3,5-Dimethylpiperidin-1-yl)-1-(2-hydroxy-4,6-dimethoxyphenyl)-3-oxopropyl)-N,N-dimethylbenzenesulfonamide] returned a half-maximal inhibitory concentration (IC50) under setting [1] of 11 to 50 µM.

`COc1cc(O)c(C(CC(=O)Nc2cccc3ccccc23)c2ccc3c(c2)OCO3)c(OC)c1` (centres unmarked) [Compound 31]: the IC50 under setting [1] was more than 50 µM. As for `COc1cc(O)c(C(CC(=O)N2CCCC(c3nc4ccccc4o3)C2)c2ccc3c(c2)OCO3)c(OC)c1` (centres unmarked) [Compound 18], the Emax was 90.6%. Further, the half-inhibitory concentration (IC50) under setting [1] was in the range of 11 to 50 µM. The matching figures for `COc1cc(O)c(C(CC(=O)N2CC(C)CC(C)C2)c2ccc3c(c2)OC(F)(F)O3)c(OC)c1` (centres unmarked) [Compound 104]: 97.3% and 1 to 10 µM. On to `COc1cc(O)c(C(CC(=O)N2CCc3ccccc3C2)c2ccc3c(c2)OCO3)c(OC)c1` (centres unmarked) [Compound 27], for which the Emax is 80.7%. Moreover, the IC50 under setting [1] was in the range of 11 to 50 µM. For the molecule `CC1CCCN(C(=O)CC(c2ccc3c(c2)OCO3)c2cc(C(C)C)ccc2O)C1` (centres unmarked) [Compound 114], the Emax came out at 87.3%. For the same molecule, the IC50 under setting [1] was 11 to 50 µM.

Under setting [1], `COc1cc(O)c(C(CC(=O)NC2CCCc3ccccc32)c2ccc3c(c2)OCO3)c(OC)c1` (centres unmarked) [Compound 26] returned a half-inhibitory concentration (IC50) of more than 50 µM. Take `CC1CC(C)CN(C(=O)CC(c2ccc3c(c2)OCO3)c2cccc(F)c2O)C1` (centres unmarked) [Compound 143]: the Emax turned out to be 86.4%. This molecule also returned an IC50 under setting [1] of 11 to 50 µM.

As to `COc1cc(O)c(C(CC(=O)N[C@H](C)c2ccccc2)c2ccc3c(c2)OCO3)c(OC)c1` (some centres unmarked) [Compound 34], under setting [1], the half-inhibitory concentration (IC50) is more than 50 µM. On to `CC1CC(C)CN(C(=O)CC(c2ccc3c(c2)OCO3)c2ccc(F)cc2O)C1` (centres unmarked) [Compound 144], for which the Emax was 97.3%. Also, under setting [1], the IC50 lay within 11 to 50 µM. In the case of `COc1cc(OC)c(C(c2ccccc2)C(C)(C)C(=O)N2CC(C)CC(C)C2)c(OC)c1` (centres unmarked) [Compound 149, 1-(3,5-Dimethylpiperidin-1-yl)-2,2-dimethyl-3-phenyl-3-(2,4,6-trimethoxyphenyl)propan-1-one], the Emax came to 93.8%. Under setting [1], this molecule returned a half-inhibitory concentration (IC50) of 1 to 10 µM. This molecule also gave an IC50 under setting [2] of 1 to 10 µM.

As for `Cc1ccc(C(CC(=O)N2CCCC(C)C2)c2ccc3c(c2)OCO3)c(O)c1` (centres unmarked) [Compound 125], the Emax amounted to 51.6%. Under setting [1], this molecule came in with a concentration for half-maximal inhibition (IC50) of 11 to 50 µM.

On to `COc1cc(O)c(C(CC(=O)N2CCCC(C(=O)N3CCCCC3)C2)c2ccc3c(c2)OCO3)c(OC)c1` (centres unmarked) [Compound 17], for which the half-maximal inhibitory concentration (IC50) under setting [1] was more than 50 µM. In the case of `COc1cc(O)c(C(CC(=O)N2CCCC(C(C)C)C2)c2ccc3c(c2)OCO3)c(OC)c1` (centres unmarked) [Compound 11], the Emax worked out at 102%. The same molecule returned a concentration for half-maximal inhibition (IC50) under setting [1] of 11 to 50 µM. Consider `CC1CCCN(C(=O)CC(c2ccc3c(c2)OCO3)c2ccc(O)cc2O)C1` (centres unmarked) [Compound 122], for which the IC50 under setting [1] is more than 50 µM.

Regarding `COc1cc(O)c(C(CC(=O)N2CCCC(COc3ccc(F)cc3)C2)c2ccc3c(c2)OCO3)c(OC)c1` (centres unmarked) [Compound 19], the Emax is 47.5%. The molecule also yielded a 50% inhibitory concentration (IC50) under setting [1] of 11 to 50 µM.

Regarding `COc1cc(OC)c(C(c2ccccc2)C(C)(C)C(=O)N2CC3CCC2C3)c(OC)c1` (centres unmarked) [Compound 152], the Emax turned out to be 50.7%. Under setting [1], this molecule displayed a half-inhibitory concentration (IC50) of 11 to 50 µM.
